# Test results taken from publication PMC12040169 (PLOS Biology, 2025).
# Test: in vitro
# Conditions: human, hela cells, % viability
row,Compound,"viability at 28.5 h, 10 µM"
1,COC(C)(C)C(=O)N1CCC2(C/C=C/Cc3ccccc3OCC(=O)NCCNC2=O)CC1 [CBK292001],105%
2,O=C1COc2ccccc2C/C=C/CC2(CCN(C(=O)Cn3cccn3)CC2)C(=O)NCCN1 [CBK292003],117%
3,CC(=O)NCC(=O)N1CCC2(C/C=C/CNC(=O)c3ccccc3OCCNC2=O)CC1 [CBK292006],97.4%
4,O=C1NC/C=C/CC2(CCN(Cc3ccc(Cl)cn3)CC2)C(=O)NCCOc2ccccc21 [CBK292008],103%
5,CC(=O)N1CC[C@H]2NC(=O)CNC(=O)C3(CCCC[C@H]2C1)CCN(C(=O)c1n[nH]c2c1CCC2)CC3 [CBK292012],102%
6,CC(=O)NCC(=O)N1CC[C@@H]2NC(=O)CNC(=O)C3(CCCC[C@H]2C1)CCN(C(C)=O)CC3 [CBK292014],91.8%
7,O=C1NCC2(C/C=C/CCOc3ccccc31)CCN(C(=O)Cc1cccc(F)c1)CC2 [CBK292015],81%
8,O=C1NCC2(C/C=C/CCOc3ccccc31)CCN(C(=O)CCc1ccccc1)CC2 [CBK292017],71.2%
9,O=C1NCC2(C/C=C/CCOc3ccccc31)CCN(C(=O)c1ccncc1)CC2 [CBK292018],105%
10,O=C1COc2ccccc2C/C=C/CC2(CCN(C(=O)c3n[nH]c4c3CCC4)CC2)CN1 [CBK292019],111%
11,O=C1COc2ccccc2C/C=C/CC2(CCN(C(=O)c3n[nH]c4ccccc34)CC2)CN1 [CBK292021],88.9%
12,O=C1NCCNC(=O)C2(C/C=C/COc3ccccc31)CCN(C(=O)c1cncs1)CC2 [CBK292023],95.3%
13,O=C1NCCNC(=O)C2(C/C=C/COc3ccccc31)CCN(C(=O)CCN1CCCCC1)CC2 [CBK292026],110%
14,O=C1COc2ccccc2C/C=C/CC2(CCCNC2)CN1 (stereo not drawn) [CBK292029],91.5%
15,CC(=O)N1CC[C@H]2NC(=O)CNC(=O)C3(CCCC[C@H]2C1)CCN(C(=O)CC1CCOCC1)CC3 [CBK292030],92.9%
16,O=C1COc2ccccc2C/C=C/C[C@H]2CNCC[C@H]2N1 [CBK292033],101%
17,CN1C(=O)c2ccccc2OCCCCC[C@H]2[C@@H]1CCCN2C(=O)c1cc2c([nH]c1=O)CCC2 [CBK292034],114%
18,O=C1COc2ccccc2C/C=C/CC2(CCCN(C(=O)CN3CSCC3=O)C2)CN1 (stereo not drawn) [CBK292035],116%
19,Cc1noc(C)c1CCC(=O)N1CC[C@H]2NC(=O)c3ccccc3OCCCCC[C@H]2C1 [CBK292036],96.5%
20,O=C1N[C@@H]2CCN(C(=O)COc3cccnc3)C[C@@H]2CCCCCOc2ccccc21 [CBK292037],94.6%
21,O=C1N[C@@H]2CCN(C(=O)CCn3ccccc3=O)C[C@@H]2CCCCCOc2ccccc21 [CBK292039],94.2%
22,NC(=O)CN1CCC[C@@H]2NC(=O)COc3ccccc3C(=O)N[C@@H]3CCOC[C@@H]3C/C=C/C[C@@H]21 [CBK292041],103%
23,CC(=O)N1CCC[C@H]2NC(=O)CNC(=O)C3(C/C=C/C[C@H]21)CCN(c1ncccn1)CC3 [CBK292042],110%
24,Cc1ccn(CC(=O)N2CC[C@H]3NC(=O)COc4ccccc4CCCC[C@@H]3C2)c(=O)c1 [CBK292045],99.2%
25,O=C(CN1CC[C@H]2NC(=O)COc3ccccc3CCCC[C@@H]2C1)NCc1ccccn1 [CBK292046],96.7%
26,O=C1COc2ccccc2CCCC[C@@H]2CN(C(=O)CN3C(=O)CNC3=O)CC[C@H]2N1 [CBK292047],92.7%
27,O=C1COc2ccccc2CCCC[C@@H]2CN(C(=O)Cn3ccc(=O)[nH]c3=O)CC[C@H]2N1 [CBK292048],102%

row,Compound,"viability at 28.5 h, 10 µM"
1,O=C1COc2ccccc2C/C=C/CC2(CCCN(C(=O)Cn3ccnc3)C2)CN1 (stereo not drawn) [CBK292050],107%
2,O=C1NCCCNC(=O)C2(C/C=C/CCOc3ccccc31)CCN(C(=O)CN1CCCC1)CC2 [CBK292052],101%
3,CN1CCOc2ccccc2C(=O)NC/C=C/CC2(CCN(C(=O)c3ccc(F)cc3)CC2)C1=O [CBK292055],92%
4,Cc1ccc(CN2CC[C@H]3NC(=O)c4ccccc4OCC/C=C/C[C@H]3C2)cn1 [CBK292056],98.6%
5,CC(=O)N1CCC[C@H]2NC(=O)CNC(=O)C3(C/C=C/C[C@H]21)CCN(C(=O)c1ccon1)CC3 [CBK292057],109%
6,Cc1nonc1CC(=O)N1CCC[C@@H]2[C@H]1C/C=C/Cc1ccccc1OCC(=O)N2C [CBK292062],88.3%
7,CN1C(=O)COc2ccccc2C/C=C/C[C@@H]2[C@H]1CCCN2S(=O)(=O)N1CCOCC1 [CBK292063],90.6%
8,CC(C)C(=O)N1CCC[C@@H]2NC(=O)c3ccccc3OCC/C=C/C[C@@H]21 [CBK292064],101%
9,O=C1CNC(=O)C2(C/C=C/C[C@H]3COCC[C@@H]3N1)CCN(C(=O)c1cccc(Cl)c1)CC2 [CBK292066],111%
10,CN1C(=O)COc2ccccc2C/C=C/C[C@@H]2[C@H]1CCCN2S(=O)(=O)c1cccnc1 [CBK292067],102%
11,Cc1nccc(C(=O)N2CCC3(C/C=C/C[C@H]4COCC[C@H]4NC(=O)CNC3=O)CC2)n1 [CBK292072],103%
12,O=C1CNC(=O)C2(C/C=C/C[C@H]3COCC[C@H]3N1)CCN(Cc1cccc3[nH]ccc13)CC2 [CBK292073],110%
13,O=C1NCCNC(=O)C2(CCCCOc3ccccc31)CCNCC2 [CBK292074],108%
14,CN1C(=O)c2ccccc2OCCCCC[C@H]2NCCC[C@H]21 [CBK292075],110%
15,CN1C(=O)COc2ccccc2C/C=C/C[C@H]2CNCC[C@H]21 [CBK292076],107%
16,Cc1ccc(C(=O)N2CCC[C@@H]3NC(=O)c4ccccc4OCC/C=C/C[C@@H]32)c(O)n1 [CBK292080],98.2%
17,Cc1ccn(CCC(=O)N2CCC[C@@H]3NC(=O)c4ccccc4OCC/C=C/C[C@@H]32)n1 [CBK292082],109%
18,CN1C(=O)COc2ccccc2C/C=C/C[C@@H]2[C@H]1CCCN2C(=O)c1cnn2cccnc12 [CBK292083],109%
19,O=C1NC/C=C/CC2(CCN(Cc3c[nH]c4ccccc34)CC2)C(=O)NCCOc2ccccc21 [CBK292085],100%
20,CN1C(=O)COc2ccccc2C/C=C/C[C@H]2CN(C(=O)C3CCC3)CC[C@H]21 [CBK292087],95.1%
21,CC(=O)N1CCC[C@H]2NC(=O)CNC(=O)C3(C/C=C/C[C@H]21)CCN(CC(C)C)CC3 [CBK292088],106%
22,CN1C(=O)COc2ccccc2CCCC[C@@H]2[C@H]1CCCN2C(=O)CCCn1cccn1 [CBK292090],111%
23,Cc1nc(CC(=O)N2CCC[C@@H]3[C@H]2CCCCc2ccccc2OCC(=O)N3C)cs1 [CBK292091],113%
24,CC(C)N1CCC2(C/C=C/CNC(=O)c3ccccc3OCCNC2=O)CC1 [CBK292094],98.7%
25,O=C1NC/C=C/CC2(CCN(C(=O)c3cccnn3)CC2)C(=O)NCCOc2ccccc21 [CBK292095],108%
26,O=C1N[C@H]2CCCN(C(=O)Cn3cccnc3=O)[C@H]2CCCCCOc2ccccc21 [CBK292096],109%
27,O=C1COc2ccccc2C/C=C/C[C@H]2CN(C(=O)c3noc4c3CCCC4)CC[C@H]2N1 [CBK292099],116%
